Measurements: ChEMBL document CHEMBL3885861, “Open TG-GATES”

Species on record: Rattus norvegicus
Assay: Open TG-GATES - Regimen: Daily Repeat
Format: toxicity, organism-based, Sprague-Dawley
Set-up: regimen Daily Repeat, gender Male, age 6 weeks
Settings: in vivo, po, route gavage; for TP / gamma-GTP / A/G / ALP / ALT / AST / BUN / CRE / Ca / Cl / GLC / IP / K / LDH / Na / PL / RALB / TC / TG: tissue Plasma; for APTT / Bas / Eos / Fbg / Hb / Ht / Lym / MCH / MCHC / MCV / Mono / Neu / PT / Plat / RBC / Ret / WBC: tissue Blood; for KIDNEY_L / KIDNEY_R / KIDNEY_TOTAL: tissue Kidney; for LIVER: tissue Liver
[1] = 300 mg/kg, […], dose level Middle, time 28 day
[2] = 1000 mg/kg, 72 h, dose level High, time 3 day
[3] = 1000 mg/kg, […], dose level High, time 7 day
[4] = 1000 mg/kg, […], dose level High, time 14 day
[5] = 1000 mg/kg, […], dose level High, time 28 day

In the case of `O=C(O)c1ccccc1Nc1ccccc1` [FENAMIC ACID], the TP [1] is reported as 6.4 g/dL, the gamma-GTP [1] is reported as 1 IU/L and the TERMINAL_BW [2] is reported as 219.3 g. It also gave an APTT [2] of 17 s, a Bas [2] of 0.3% and an Eos [2] of 0.7%. The Fbg [2] was 440 mg/dL, the Hb [2] was 13.3 g/dL and the Ht [2] was 39.3%. It also gave a Lym [2] of 50.3%, an MCH [2] of 20.5 pg and an MCHC [2] of 33.8%. For the same compound, the MCV [2] was 60.5 fL, the Mono [2] was 3.3% and the Neu [2] was 44.3%. The PT [2] was 14 s, the Plat [2] was 127 x10_4/uL and the RBC [2] was 650 x10_4/ul. The Ret [2] was 5.7%, the WBC [2] was 132.2 x10_2/uL and the KIDNEY_L [2] was 1.1 g. The KIDNEY_R [2] was 1.1 g, the KIDNEY_TOTAL [2] was 2.1 g and the LIVER [2] was 10.8 g. For the same compound, the A/G [2] was 0.9, the ALP [2] was 1423.7 IU/L and the ALT [2] was 37.7 IU/L. For the same compound, the AST [2] was 58.3 IU/L, the BUN [2] was 17 mg/dL and the CRE [2] was 0.2 mg/dL. For the same compound, the Ca [2] was 11.4 mg/dL, the Cl [2] was 109 meq/L and the GLC [2] was 165.7 mg/dL. For the same compound, the IP [2] was 6.6 mg/dL, the K [2] was 4.4 meq/L and the LDH [2] was 100.3 IU/L. It also gave a Na [2] of 143.3 meq/L, a PL [2] of 148.7 mg/dL and an RALB [2] of 2.5 g/dL. For the same compound, the TC [2] was 67 mg/dL, the TG [2] was 89.3 mg/dL and the TP [2] was 5.3 g/dL. The gamma-GTP [2] was 1.3 IU/L, the TERMINAL_BW [3] was 253.6 g and the TERMINAL_BW [4] was 281.5 g. For the same compound, the TERMINAL_BW [5] was 383.3 g, the APTT [3] was 16.6 s and the Bas [3] was 1%. The Eos [3] was 0.7%, the Fbg [3] was 290.7 mg/dL and the Hb [3] was 12.6 g/dL. For the same compound, the Ht [3] was 37%, the Lym [3] was 72.3% and the MCH [3] was 20.5 pg. It also gave an MCHC [3] of 34%, an MCV [3] of 60.2 fL and a Mono [3] of 3%. It also gave a Neu [3] of 23.3%, a PT [3] of 14.1 s and a Plat [3] of 156 x10_4/uL. It also gave an RBC [3] of 616 x10_4/ul, a Ret [3] of 7.7% and a WBC [3] of 161.4 x10_2/uL. The APTT [4] was 32.8 s, the Bas [4] was 0.7% and the Eos [4] was 0.3%. It also gave a Fbg [4] of 473.3 mg/dL, a Hb [4] of 14 g/dL and a Ht [4] of 41.7%. It also gave a Lym [4] of 53.3%, an MCH [4] of 21.1 pg and an MCHC [4] of 33.5%. It also gave an MCV [4] of 63.2 fL, a Mono [4] of 3.7% and a Neu [4] of 41.7%. For the same compound, the PT [4] was 13.2 s, the Plat [4] was 171.8 x10_4/uL and the RBC [4] was 674 x10_4/ul. The Ret [4] was 13.6%, the WBC [4] was 149.3 x10_2/uL and the APTT [5] was 17.1 s. For the same compound, the Bas [5] was 0%, the Eos [5] was 0.5% and the Fbg [5] was 334.5 mg/dL. For the same compound, the Hb [5] was 12.2 g/dL, the Ht [5] was 36% and the Lym [5] was 69%. It also gave an MCH [5] of 19.6 pg, an MCHC [5] of 34% and an MCV [5] of 57.6 fL. The Mono [5] was 2.5%, the Neu [5] was 27.5% and the PT [5] was 13.9 s. The Plat [5] was 139.6 x10_4/uL, the RBC [5] was 626 x10_4/ul and the Ret [5] was 7.5%. For the same compound, the WBC [5] was 154.4 x10_2/uL, the KIDNEY_L [3] was 1.1 g and the KIDNEY_R [3] was 1.1 g. It also gave a KIDNEY_TOTAL [3] of 2.3 g, a KIDNEY_L [4] of 2.1 g and a KIDNEY_R [4] of 1.8 g. It also gave a KIDNEY_TOTAL [4] of 4 g, a KIDNEY_L [5] of 1.7 g and a KIDNEY_R [5] of 1.6 g. For the same compound, the KIDNEY_TOTAL [5] was 3.3 g, the LIVER [3] was 12.5 g and the LIVER [4] was 13.5 g. It also gave an LIVER [5] of 18.7 g, an A/G [3] of 0.9 and an ALP [3] of 1573.3 IU/L. For the same compound, the ALT [3] was 38 IU/L, the AST [3] was 62.7 IU/L and the BUN [3] was 20 mg/dL. It also gave a CRE [3] of 0.3 mg/dL, a Ca [3] of 11.5 mg/dL and a Cl [3] of 107 meq/L. For the same compound, the GLC [3] was 177.3 mg/dL, the IP [3] was 6.3 mg/dL and the K [3] was 4.3 meq/L. The LDH [3] was 117 IU/L, the Na [3] was 144 meq/L and the PL [3] was 155.7 mg/dL. For the same compound, the RALB [3] was 2.6 g/dL, the TC [3] was 87.7 mg/dL and the TG [3] was 75.3 mg/dL. For the same compound, the TP [3] was 5.6 g/dL, the gamma-GTP [3] was 1 IU/L and the A/G [4] was 0.9. For the same compound, the ALP [4] was 1270.3 IU/L, the ALT [4] was 38.3 IU/L and the AST [4] was 57.3 IU/L. It also gave a BUN [4] of 118.3 mg/dL, a CRE [4] of 0.5 mg/dL and a Ca [4] of 11.8 mg/dL. The Cl [4] was 105.7 meq/L, the GLC [4] was 156.7 mg/dL and the IP [4] was 11 mg/dL. For the same compound, the K [4] was 5.2 meq/L, the LDH [4] was 210 IU/L and the Na [4] was 145.3 meq/L. It also gave a PL [4] of 140.7 mg/dL, an RALB [4] of 2.9 g/dL and a TC [4] of 65 mg/dL. The TG [4] was 94.7 mg/dL, the TP [4] was 6.3 g/dL and the gamma-GTP [4] was 2 IU/L. It also gave an A/G [5] of 0.9, an ALP [5] of 1013.5 IU/L and an ALT [5] of 36.5 IU/L. For the same compound, the AST [5] was 61.5 IU/L, the BUN [5] was 20 mg/dL and the CRE [5] was 0.3 mg/dL. It also gave a Ca [5] of 10.8 mg/dL, a Cl [5] of 105 meq/L and a GLC [5] of 182.5 mg/dL. It also gave an IP [5] of 5.5 mg/dL, a K [5] of 4.2 meq/L and an LDH [5] of 155.5 IU/L. The Na [5] was 144.5 meq/L, the PL [5] was 166 mg/dL and the RALB [5] was 2.5 g/dL. It also gave a TC [5] of 80 mg/dL, a TG [5] of 92 mg/dL and a TP [5] of 5.5 g/dL. It also gave a gamma-GTP [5] of 1 IU/L.
